Patent US20240299412A1, “DRUG FORMULATIONS OF 4-(3,3-DIFLUORO-2,2-DIMETHYL-PROPANOYL) -3,5-DIHYDRO-2H-PYRIDO[3,4-f][1,4]OXAZEPINE-9-CARBONITRILE” (Genzyme Corporation, priority 2023, published 2024)
Values after ≈ are worked out from the molar mass of the structure shown.

Tests used:
Type in all cases: physicochemical
[1] = Dynamic vapor sorption (DVS)
Protocol: DVS. DVS was measured via a SMS (Surface Measurement Systems) DVS Intrinsic. The relative humidity at 25° C. were calibrated against deliquescence point of LiCl, Mg(NO3)2 and KCl.
(onset temperature). Considering the low TGA weight loss and single sharp DSC endotherm, Form A was postulated to be an anhydrate. […] However Form A has been prepared with much lower volatile content (0.1% or lower).

[2] = Physical and chemical stability of Form A (solid storage)
Protocol: To evaluate the physical and chemical stability, Compound (1) Form A was stored in 3 conditions (40° C./75% RH; 25° C./60% RH; and 60° C.) for one and four weeks.

[3] = Kinetic solubility in bio-relevant media and H2O; settings: for Final Form: residual solid; for Final Form / solubility at 1 h / solubility at 4 h / solubility at 24 h: 37° C.; for solubility at 1 h / solubility at 4 h / solubility at 24 h: thermodynamic from solid, Turbid
Protocol: Solids were suspended in FaSSIF, FeSSIF, SGF and H2O with target conc. of ˜10 mg/mL. The suspensions were agitated on a rolling incubator at 25 rpm (in the incubator set at 37° C.) for 1, 4 and 24 hrs. At each time point, 1 mL of the suspension was pipetted out for centrifugation at 15000 rpm (3 min) and filtration through 0.45 μm membrane to obtain supernatant for HPLC solubility and pH tests, the residual solids were analyzed by XRPD.

[4] = 24-Hrs solubility in pH buffers; settings: for solubility at 24 h: aqueous buffer, thermodynamic from solid, Turbid; for Final Form: residual solid; for solubility at 24 h / Final Form: 24 hrs
[5] = Solution stability in pH buffers; settings: 37° C.; for Purity vs. Initial (%): ~0.5 mg/mL, Clear
Protocol: Solution stability study was performed in pH 2.0/4.0/6.0/7.0 (24 hrs) and pH 8.0 (24 hrs and 96 hrs) buffers. Solids were dissolved with pH buffers with target conc. of ˜0.5 mg/mL to form clear solutions and stored at 37° C. for 24 hrs or 96 hrs.

[6] = 40° C./75% RH, 25° C./60% RH, 60° C., one and four weeks
[7] = pH 7.0 (50 mM Phosphate), 24 hrs
[8] = pH 8.0 (50 mM Phosphate), 24 hrs
[9] = pH 8.0 (50 mM Phosphate), 96 hrs

CC(C)(C(=O)N1CCOc2c(C#N)cncc2C1)C(F)F [Form A, 4-(3,3-difluoro-2,2-dimethyl-propanoyl)-3,5-dihydro-2H-pyrido[3,4-f][1,4]oxazepine-9-carbonitrile]
water uptake (DVS) ([1]; 25 C.°/80% RH): 0.024%
form change after DVS test (XRPD) ([1]; after DVS test): no form change
API (RRT 1.00) % Area ([2]; 1 week, 25° C./60% RH): 99.92 % Area
Description ([2]; 1 week, 25° C./60% RH): White powder
Final Form ([2]; 1 week, 25° C./60% RH): Form A
Imp.1 (RRT 0.68) % Area ([2]; 1 week, 25° C./60% RH): 0.08 % Area
Purity VS. initial (%) ([2]; 1 week, 25° C./60% RH): 100.0%
API (RRT 1.00) % Area ([2]; 1 week, 40° C./75% RH): 99.89 % Area
Description ([2]; 1 week, 40° C./75% RH): White powder
Final Form ([2]; 1 week, 40° C./75% RH): Form A
Imp.1 (RRT 0.68) % Area ([2]; 1 week, 40° C./75% RH): 0.11 % Area
Purity VS. initial (%) ([2]; 1 week, 40° C./75% RH): 100.0%
API (RRT 1.00) % Area ([2]; 1 week, 60° C.): 99.90 % Area
Description ([2]; 1 week, 60° C.): White powder
Final Form ([2]; 1 week, 60° C.): Form A
Imp.1 (RRT 0.68) % Area ([2]; 1 week, 60° C.): 0.10 % Area
Purity VS. initial (%) ([2]; 1 week, 60° C.): 100.0%
API (RRT 1.00) % Area ([2]; 4 weeks, 25° C./60% RH): 99.90 % Area
Description ([2]; 4 weeks, 25° C./60% RH): White powder
Final Form ([2]; 4 weeks, 25° C./60% RH): Form A
Imp.1 (RRT 0.68) % Area ([2]; 4 weeks, 25° C./60% RH): 0.10 % Area
Purity VS. initial (%) ([2]; 4 weeks, 25° C./60% RH): 100.0%
API (RRT 1.00) % Area ([2]; 4 weeks, 40° C./75% RH): 99.90 % Area
Description ([2]; 4 weeks, 40° C./75% RH): White powder
Final Form ([2]; 4 weeks, 40° C./75% RH): Form A
Imp.1 (RRT 0.68) % Area ([2]; 4 weeks, 40° C./75% RH): 0.10 % Area
Purity VS. initial (%) ([2]; 4 weeks, 40° C./75% RH): 100.0%
API (RRT 1.00) % Area ([2]; 4 weeks, 60° C.): 99.90 % Area
Description ([2]; 4 weeks, 60° C.): White powder
Final Form ([2]; 4 weeks, 60° C.): Form A
Imp.1 (RRT 0.68) % Area ([2]; 4 weeks, 60° C.): 0.10 % Area
Purity VS. initial (%) ([2]; 4 weeks, 60° C.): 100.0%
HPLC purity change on storage [2, 6]: no obvious HPLC purity change
form change on storage (XRPD) [2, 6]: no form change
API (RRT 1.00) % Area ([2]; Initial): 99.89 % Area
Imp.1 (RRT 0.68) % Area ([2]; Initial): 0.11 % Area
form change after kinetic solubility test ([3]; bio-relevant media or H2O): No form change
Final Form ([3]; FaSSIF (pH 6.5), 1 hr): Form A
Final Form ([3]; FaSSIF (pH 6.5), 4 hr): Form A
Final Form ([3]; FaSSIF (pH 6.5), 24 hr): Form A
Final Form ([3]; FeSSIF (pH 5.0), 1 hr): Form A
Final Form ([3]; FeSSIF (pH 5.0), 4 hr): Form A
Final Form ([3]; FeSSIF (pH 5.0), 24 hr): Form A
Final Form ([3]; H2O (pH 6.5), 1 hr): Form A
Final Form ([3]; H2O (pH 6.5), 4 hr): Form A
Final Form ([3]; H2O (pH 6.5), 24 hr): Form A
Final Form ([3]; SGF (pH 1.8), 1 hr): Form A
Final Form ([3]; SGF (pH 1.8), 4 hr): Form A
Final Form ([3]; SGF (pH 1.8), 24 hr): Form A
solubility at 1 h ([3]; simulated gastric fluid, SGF (pH 1.8), 1 hr, final pH 1.8): 2300 µg/mL (≈ 7.79 mM)
solubility at 4 h ([3]; simulated gastric fluid, SGF (pH 1.8), 4 hr, final pH 2.3): 2400 µg/mL (≈ 8.13 mM)
solubility at 24 h ([3]; simulated gastric fluid, SGF (pH 1.8), 24 hr, final pH 2.2): 2500 µg/mL (≈ 8.47 mM)
solubility at 1 h ([3]; FaSSIF (pH 6.5), 1 hr, final pH 6.4): 1100 µg/mL (≈ 3.73 mM)
solubility at 4 h ([3]; FaSSIF (pH 6.5), 4 hr, final pH 6.6): 1100 µg/mL (≈ 3.73 mM)
solubility at 24 h ([3]; FaSSIF (pH 6.5), 24 hr, final pH 6.6): 1200 µg/mL (≈ 4.06 mM)
solubility at 1 h ([3]; FeSSIF (pH 5.0), 1 hr, final pH 5.6): 1100 µg/mL (≈ 3.73 mM)
solubility at 4 h ([3]; FeSSIF (pH 5.0), 4 hr, final pH 5.6): 1200 µg/mL (≈ 4.06 mM)
solubility at 24 h ([3]; FeSSIF (pH 5.0), 24 hr, final pH 5.6): 1200 µg/mL (≈ 4.06 mM)
solubility at 1 h ([3]; water, H2O (pH 6.5), 1 hr, final pH 8.5): 1100 µg/mL (≈ 3.73 mM)
solubility at 4 h ([3]; water, H2O (pH 6.5), 4 hr, final pH 8.4): 1100 µg/mL (≈ 3.73 mM)
solubility at 24 h ([3]; water, H2O (pH 6.5), 24 hr, final pH 8.7): 1100 µg/mL (≈ 3.73 mM)
solubility at 24 h ([4]; 50 mM HCl-KCl buffer, pH 2.0 (50 mM HCl—KCl), final pH 2.3): 1800 µg/mL (≈ 6.1 mM)
solubility at 24 h ([4]; 50 mM citrate buffer, pH 4.0 (50 mM Citrate), final pH 4.1): 840 µg/mL (≈ 2.84 mM)
solubility at 24 h ([4]; 50 mM citrate buffer, pH 6.0 (50 mM Citrate), final pH 5.9): 750 µg/mL (≈ 2.54 mM)
solubility at 24 h ([4]; 50 mM phosphate buffer, pH 7.0 (50 mM Phosphate), final pH 6.9): 900 µg/mL (≈ 3.05 mM)
solubility at 24 h ([4]; 50 mM phosphate buffer, pH 8.0 (50 mM Phosphate), final pH 7.8): 810 µg/mL (≈ 2.74 mM)
form change after equilibrium solubility evaluation ([4]; pH buffers): no form change
Final Form ([4]; pH 2.0 (50 mM HCl—KCl)): Form A
Final Form ([4]; pH 4.0 (50 mM Citrate)): Form A
Final Form ([4]; pH 6.0 (50 mM Citrate)): Form A
Final Form ([4]; pH 7.0 (50 mM Phosphate)): Form A
Final Form ([4]; pH 8.0 (50 mM Phosphate)): Form A
API (RRT 1.00) % Area ([5]; pH 2.0 (50 mM HCl—KCl), 24 hrs): 84.93 % Area
Imp. 1 (RRT 0.66) % Area ([5]; pH 2.0 (50 mM HCl—KCl), 24 hrs): 0.15 % Area
Imp. 1 (RRT 0.70) % Area ([5]; pH 2.0 (50 mM HCl—KCl), 24 hrs): 0.67 % Area
Imp. 1 (RRT 0.76) % Area ([5]; pH 2.0 (50 mM HCl—KCl), 24 hrs): 14.25 % Area
Imp. 1 (RRT 1.05) % Area ([5]; pH 2.0 (50 mM HCl—KCl), 24 hrs): — (—: <0.05 area %)
Purity vs. Initial (%) ([5]; pH 2.0 (50 mM HCl—KCl), 24 hrs): 85.1%
degradation in solution ([5]; pH 2.0 and pH 4.0 buffers, 24 hrs): Degradation was observed
API (RRT 1.00) % Area ([5]; pH 4.0 (50 mM Citrate), 24 hrs): 98.42 % Area
Imp. 1 (RRT 0.66) % Area ([5]; pH 4.0 (50 mM Citrate), 24 hrs): 0.15 % Area
Imp. 1 (RRT 0.70) % Area ([5]; pH 4.0 (50 mM Citrate), 24 hrs): — (—: <0.05 area %)
Imp. 1 (RRT 0.76) % Area ([5]; pH 4.0 (50 mM Citrate), 24 hrs): 0.38 % Area
Imp. 1 (RRT 1.05) % Area ([5]; pH 4.0 (50 mM Citrate), 24 hrs): 0.06 % Area
Purity vs. Initial (%) ([5]; pH 4.0 (50 mM Citrate), 24 hrs): 98.5%
API (RRT 1.00) % Area ([5]; pH 6.0 (50 mM Citrate), 24 hrs): 99.75 % Area
Imp. 1 (RRT 0.66) % Area ([5]; pH 6.0 (50 mM Citrate), 24 hrs): 0.13 % Area
Imp. 1 (RRT 0.70) % Area ([5]; pH 6.0 (50 mM Citrate), 24 hrs): — (—: <0.05 area %)
Imp. 1 (RRT 0.76) % Area ([5]; pH 6.0 (50 mM Citrate), 24 hrs): 0.06 % Area
Imp. 1 (RRT 1.05) % Area ([5]; pH 6.0 (50 mM Citrate), 24 hrs): 0.06 % Area
Purity vs. Initial (%) ([5]; pH 6.0 (50 mM Citrate), 24 hrs): 99.8%
API (RRT 1.00) % Area [5, 7]: 99.78 % Area
Imp. 1 (RRT 0.66) % Area [5, 7]: 0.15 % Area
Imp. 1 (RRT 0.70) % Area [5, 7]: — (—: <0.05 area %)
Imp. 1 (RRT 0.76) % Area [5, 7]: — (—: <0.05 area %)
Imp. 1 (RRT 1.05) % Area [5, 7]: 0.07 % Area
Purity vs. Initial (%) [5, 7]: 99.9%
API (RRT 1.00) % Area [5, 8]: 99.81 % Area
Imp. 1 (RRT 0.66) % Area [5, 8]: 0.13 % Area
Imp. 1 (RRT 0.70) % Area [5, 8]: — (—: <0.05 area %)
Imp. 1 (RRT 0.76) % Area [5, 8]: — (—: <0.05 area %)
Imp. 1 (RRT 1.05) % Area [5, 8]: 0.06 % Area
Purity vs. Initial (%) [5, 8]: 100.0%
API (RRT 1.00) % Area [5, 9]: 99.83 % Area
Imp. 1 (RRT 0.66) % Area [5, 9]: 0.13 % Area
Imp. 1 (RRT 0.70) % Area [5, 9]: — (—: <0.05 area %)
Imp. 1 (RRT 0.76) % Area [5, 9]: — (—: <0.05 area %)
Imp. 1 (RRT 1.05) % Area [5, 9]: 0.04 % Area
Purity vs. Initial (%) [5, 9]: 100.0%
